In ChEMBL document CHEMBL4828760, “Chalcogenides-incorporating carbonic anhydrase inhibitors concomitantly reverted oxaliplatin-induced neuropathy and enhanced antiproliferative action” (Eur J Med Chem, 2021):
Activity calls are given as the source filed them.

Legend:
Carbonic anhydrase 9 = Carbonic anhydrase 9 (Homo sapiens, UniProt Q16790); assay: Inhibition of recombinant human CA9 pre-incubated for 15 mins measured by phenol red dye based stopped flow CO2 hydration assay
MCF7 [1] = assay: Cytotoxicity against human MCF7 cells assessed as reduction in cell viability measured after 72 hrs under hypoxic condition by MTT assay; details: MCF7, 72 h
MCF7 [2] = assay: Cytotoxicity against human MCF7 cells assessed as reduction in cell viability at 100 uM measured after 72 hrs under hypoxic condition in presence of cisplatin by MTT assay; assay type: functional, cell-based
MCF7 [3] = assay: Cytotoxicity against human MCF7 cells assessed as reduction in cell viability at 100 uM measured after 72 hrs under hypoxic condition in presence of doxorubicin by MTT assay; assay type: functional, cell-based
Mus musculus [4] = assay: Antiallodynic activity in po dosed CD-1 albino mouse model of oxaliplatin-induced neuropathic pain assessed as reduction in pain-related behavior administered 14 days post oxaliplatin induction and measured upto 75 mins by cold plate test; assay type: functional, organism-based; details: dose 10-100 mg/kg, time 14.0 day
Mus musculus [5] = assay: Anti-hypersensitive activity in CD-1 albino mouse model of oxaliplatin-induced neuropathic pain assessed as restoration of normal pain threshold at 30 to 100 mg/kg, po administered 14 days post oxaliplatin induction and measured upto 75 mins by cold plate test; assay type: functional, organism-based; details: dose 30-100 mg/kg, time min <=75
Mus musculus [6] = assay: Anti-hypersensitive activity in CD-1 albino mouse model of oxaliplatin-induced neuropathic pain assessed as restoration of normal pain threshold at 10 mg/kg, po administered 14 days post oxaliplatin induction and measured upto 75 mins by cold plate test; assay type: functional, organism-based; details: time min <=75
Mus musculus [7] = assay: Anti-hypersensitive activity in CD-1 albino mouse model of oxaliplatin-induced neuropathic pain assessed as restoration of normal pain threshold at 100 mg/kg, po administered 14 days post oxaliplatin induction and measured upto 75 mins by cold plate test; assay type: functional, organism-based; details: time min <=75

Structure (SMILES)	Ki (Carbonic anhydrase 9)	further results
Cc1ccc(S(=O)(=O)N[C@@H](C)CSCC(O)CSc2ccc(S(N)(=O)=O)cc2)cc1 (stereo partly specified)	193 nM	
C=CCOCC(O)C[Se]CC(O)C[Se]c1ccc(S(N)(=O)=O)cc1 (stereo unspecified)	157 nM	
COc1cc([Te]CC(O)CSc2ccc(S(N)(=O)=O)cc2)cc(OC)c1OC (stereo unspecified)	187 nM	IC50 (MCF7 [1]): 125 µM; Activity (MCF7 [2]): Active; Activity (MCF7 [3]): Active
NS(=O)(=O)c1ccc(SCC(O)CSc2ccccc2Br)cc1 (stereo unspecified)	175 nM	
NS(=O)(=O)c1ccc([Se]CC(O)CSc2ccccc2)cc1 (stereo unspecified)	288 nM	Activity (MCF7 [2]): inactive; Activity (MCF7 [3]): Active
Cc1ccc([Te]CC(O)C[Se]c2ccc(S(N)(=O)=O)cc2)cc1 (stereo unspecified)	152 nM	
CCCC[Se]CC(O)CSc1ccc(S(N)(=O)=O)cc1 (stereo unspecified)	164 nM	Activity (MCF7 [2]): Active; Activity (MCF7 [3]): Active
Cc1ccccc1[Se]CC(O)C[Se]c1ccc(S(N)(=O)=O)cc1 (stereo unspecified)	29.4 nM	
NS(=O)(=O)c1ccc([Se]CC(O)CSc2ncccn2)cc1 (stereo unspecified)	31 nM	
C=CCOCC(O)C[Se]CC(O)CSc1ccc(S(N)(=O)=O)cc1 (stereo unspecified)	241 nM	
COc1ccc([Se]CC(O)CSc2ccc(S(N)(=O)=O)cc2)cc1 (stereo unspecified)	156 nM	
NS(=O)(=O)c1ccc([Se]CC(O)C[Se]c2ccccc2)cc1 (stereo unspecified)	84.5 nM	Activity (Mus musculus [4]): Dose-Dependent Effect; Activity (Mus musculus [5]): Active
CCCC[Se]CC(O)C[Se]c1ccc(S(N)(=O)=O)cc1 (stereo unspecified)	208 nM	
CC(O)CSCC(O)C[Se]c1ccc(S(N)(=O)=O)cc1 (stereo unspecified)	275 nM	
NS(=O)(=O)c1ccc(SCC(O)CSc2cccc(Br)c2)cc1 (stereo unspecified)	135 nM	
NS(=O)(=O)c1ccc([Se]CC(O)CSc2ccc(Br)cc2)cc1 (stereo unspecified)	172 nM	Activity (Mus musculus [4]): Dose-Dependent Effect; Activity (Mus musculus [6]): Active; Activity (Mus musculus [5]): Active
NS(=O)(=O)c1ccc(SCC(O)C[Se]c2ccccc2)cc1 (stereo unspecified)	29.2 nM	Activity (Mus musculus [4]): Dose-Dependent Effect; Activity (Mus musculus [7]): Active
